# In patent publication US12091398B2, “PD-L1 antagonist compound” (ADLAI NORTYE BIOPHARMA CO., LTD., priority 2019, dated 2024):
# pEC50: −log10 of the molar value. Like-named read-outs stand apart in the source and are kept apart here.
# System: PD-1/PD-L1 interaction
# Assay: Cell based PD-1/PD-L1 NFAT reporter assay
# Design: species or system human
# Conditions: PD-1/NFAT-Reporter-Jurkat cells co-cultured with TCR activator/PD-L1-CHO cells, 6 hour incubation, luciferase, calibrated to Atezolizumab 10 nM, read-out: Absolute EC50
# Protocol: Cell Based PD-1/PD-L1 NFAT Reporter Assay
# Compounds of the present patent were tested in a cell based PD-1/PD-L1 NFAT reporter assay.
# The cell-based luciferase reporter assay is used for monitoring the PD-1/PD-L1 inhibitor by characterizing the biological activity of PD-1: PD-L1 interactions in cellular context. PD-1/NFAT-Reporter-Jurkat cells stably over-expressing human PD-1 with NFAT reporter are used as effector cells. TCR activator/PD-L1—CHO cells over-expressing PD-L1 and an engineered T cell receptor (TCR) activator are used as target cells. When these two cells are co-cultivated, TCR complexes on effector cells are activated by TCR activator on target cells, resulting in expression of the NFAT luciferase reporter. However, PD1 and PD-L1 (or PD-L2) ligation prevents TCR activation and suppresses the NFAT-responsive luciferase activity. This inhibition can be specifically reversed by anti-PD1 or anti-PD-L1 inhibitors. PD1/PD-L1 inhibitors block PD1:PD-L1 interaction and promote TCR activation, resulting in reactivation of the NFAT responsive luciferase reporter.
# PD-1/NFAT—Reporter—Jurkat cell (Cat: 60535) and TCR activator/PD-L1—CHO cell (Cat: 60536) were purchased from BPS Bioscience. Anti-human PD-L1 antibody (Atezolizumab, Cat: A2004) was purchased from Selleck; luciferase reporter gene expression detection kit (ONE-Glo™ Luciferase Assay System, Cat: E6120) was purchased from Promega; multifunction plate reader (SpectraMax i3x) was purchased from Molecular Devices.
# PD-1/NFAT—Reporter—Jurkat cells and TCR activator/PD-L1—CHO cells were cultured in recommended media respectively.
# Harvest TCR activator/PD-L1-CHO cells from culture and seed cells at a density of 35,000 cells per well into 96-well microplate in 100 µl of growth medium. Incubate cells at 37° C. in a CO2 incubator overnight. Next day, discard the culture media, add diluted compound in assay medium for 30 min. Anti-PD-L1 antibody (Atezolizumab, final concentration 10 nM) and 0.1% DMSO were the positive and negative control, respectively. Harvest the PD-1/NFAT-reporter-Jurkat cells by centrifugation and add to the wells. After 6 hour incubation, perform luciferase assay using the ONE-Glo™ Luciferase Assay System, following the manufacturer's assay protocol.
# Anti-PD-L1 antibody (Atezolizumnab, 10 nM) was used as positive control to calibrate the inhibition rate using the following equation: % inhibition=(Sample luminescence/Average vehicle group luminescence−1)/(Average PD-L1 group luminescence/Average vehicle group luminescence−1)×100%.
Structure (SMILES),"pEC50 (Homo sapiens, 6 h)",pEC50
N#Cc1cc(COc2cc(OCc3cccc(-c4cccc5c4cnn5CCCN4CC[C@@H](O)C4)c3Br)c(Cl)cc2CN[C@@H](CO)C(=O)O)ccn1 [Compound 1],6.47,
N#Cc1cncc(COc2cc(OCc3cccc(-c4cccc5c4cnn5CCCN4CC[C@@H](O)C4)c3Br)c(Cl)cc2CN[C@@H](CO)C(=O)O)c1 [Compound 2],,6.51
N#Cc1cncc(COc2cc(OCc3cccc(-c4cccc5c4ccn5CCCN4CC[C@@H](O)C4)c3Br)c(Cl)cc2CN[C@@H](CO)C(=O)O)c1 [Compound 3],5.62,
Cc1nn(CCCN2CC[C@@H](O)C2)c2cccc(-c3cccc(COc4cc(OCc5cncc(C#N)c5)c(CN[C@@H](CO)C(=O)O)cc4Cl)c3Br)c12 [Compound 4],5.26,
N#Cc1cncc(COc2cc(OCc3cccc(-c4cccc5c4cnn5CCCCN4CC[C@@H](O)C4)c3Br)c(Cl)cc2CN[C@@H](CO)C(=O)O)c1 [Compound 5],,6.62
N#Cc1cncc(COc2cc(OCc3cccc(-c4cccc5c4cnn5CCCN4CCC(O)CC4)c3Br)c(Cl)cc2CN[C@@H](CO)C(=O)O)c1 [Compound 6],6.58,
CC(CO)(CO)NCc1cc(Cl)c(OCc2cccc(-c3cccc4c3cnn4CCCCN3CC[C@@H](O)C3)c2Br)cc1OCc1cncc(C#N)c1 [Compound 7],6.47,
N#Cc1cncc(COc2cc(OCc3cccc(-c4cccc5c4cnn5CCCCN4CC[C@@H](O)C4)c3Br)c(Cl)cc2CN[C@@H](CO)C(=O)O)c1 [Compound 8],,5.94
N#Cc1cncc(COc2cc(OCc3cccc(-c4cccc5c4cnn5CCCCCN4CC[C@@H](O)C4)c3Br)c(Cl)cc2CN[C@@H](CO)C(=O)O)c1 [Compound 9],6.44,
CC(CO)(NCc1cc(Cl)c(OCc2cccc(-c3cccc4c3cnn4CCCN3CC[C@@H](O)C3)c2Br)cc1OCc1cncc(C#N)c1)C(=O)O (stereo partly drawn) [Compound 10],6.39,
CC(CO)(CO)NCc1cc(Cl)c(OCc2cccc(-c3cccc4c3cnn4CCCN3CC[C@@H](O)C3)c2Br)cc1OCc1cncc(C#N)c1 [Compound 11],,6.85
CC(CO)(NCc1cc(Cl)c(OCc2cccc(-c3cccc4c3cnn4CCCCN3CC[C@@H](O)C3)c2Br)cc1OCc1cncc(C#N)c1)C(=O)O (stereo partly drawn) [Compound 12],6.54,
CC(CO)(CO)NCc1cc(Cl)c(OCc2cccc(-c3cccc4c3cnn4CCCN3CCC(O)CC3)c2Br)cc1OCc1cncc(C#N)c1 [Compound 13],6.62,
CC(CO)(CO)NCc1cc(Cl)c(OCc2cccc(-c3cccc4c3cnn4[C@H]3CC[C@H](N4CC[C@@H](O)C4)CC3)c2Br)cc1OCc1cncc(C#N)c1 [Compound 14],6.49,
CC(CO)(CO)NCc1cc(Cl)c(OCc2cccc(-c3cccc4c3cnn4CCCCN(CCO)CCO)c2Br)cc1OCc1cncc(C#N)c1 [Compound 15],5.49,
CC(CO)(CO)NCc1cc(Cl)c(OCc2cccc(-c3cccc4c3cnn4CCCCNCCO)c2Br)cc1OCc1cncc(C#N)c1 [Compound 16],5.03,
CC1(C)OCC(N2CCC(n3ncc4c(-c5cccc(COc6cc(OCc7cncc(C#N)c7)c(CN[C@@H](CO)C(=O)O)cc6Cl)c5Br)cccc43)CC2)CO1 [Compound 17],5.75,
C[C@@](CO)(NCc1cc(Cl)c(OCc2cccc(-c3cccc4c3cnn4CCCN3CC[C@@H](O)C3)c2Br)cc1OCc1cncc(C#N)c1)C(=O)O [Compound 18],6.63,
N#Cc1cncc(COc2cc(OCc3cccc(-c4cccc5c4cnn5CC4CCC(N5CC[C@@H](O)C5)CC4)c3Br)c(Cl)cc2CN[C@@H](CO)C(=O)O)c1 (stereo partly drawn) [Compound 19],6.12,
N#Cc1cncc(COc2cc(OCc3cccc(-c4cccc5c4cnn5CC4CCC(N5CC[C@@H](O)C5)CC4)c3Br)c(Cl)cc2CN[C@@H](CO)C(=O)O)c1 (stereo partly drawn) [Compound 20],,6.06
CC(CO)(CO)NCc1cc(Cl)c(OCc2cccc(-c3cncc4c3cnn4CCCCN3CC[C@@H](O)C3)c2Br)cc1OCc1cncc(C#N)c1 [Compound 21],5.45,
N#Cc1cncc(COc2cc(OCc3cccc(-c4cccc5c4cnn5C4CCN(C(CO)CO)CC4)c3Br)c(Cl)cc2CN[C@@H](CO)C(=O)O)c1 [Compound 22],5.95,
N#Cc1cncc(COc2cc(OCc3cccc(-c4cccc5c4cnn5CCCCN4CCC[C@H]4C(=O)O)c3Br)c(Cl)cc2CN[C@@H](CO)C(=O)O)c1 [Compound 23],6.22,

Structure (SMILES),"pEC50 (Homo sapiens, 6 h)",pEC50
N#Cc1cncc(COc2cc(OCc3cccc(-c4cccc5c4cnn5CCCN4CC[C@@H](O)C4)c3C3CC3)c(Cl)cc2CN[C@@H](CO)C(=O)O)c1 [Compound 24],< 5.00,
Cc1c(COc2cc(OCc3cncc(C#N)c3)c(CNC(C)(CO)CO)cc2Cl)cccc1-c1cccc2c1cnn2CCCN1CC[C@@H](O)C1 [Compound 25],6.86,
Cc1c(COc2cc(OCc3cncc(C#N)c3)c(CN[C@@H](CO)C(=O)O)cc2Cl)cccc1-c1ccnc2c1cnn2CCCCN1CC[C@@H](O)C1 [Compound 26],5.74,
Cc1c(COc2cc(OCc3cncc(C#N)c3)c(CN[C@@H](CO)C(=O)O)cc2Cl)cccc1-c1cccc2c1cnn2CCCCN1CC[C@@H](O)C1 [Compound 27],6.19,
N#Cc1cncc(COc2cc(OCc3cccc(-c4cccc5c4cnn5CCCCN4CC[C@@H](O)C4)c3[N+](=O)[O-])c(Cl)cc2CN[C@@H](CO)C(=O)O)c1 [Compound 28],6.14,
N#Cc1cncc(COc2cc(OCc3cccc(-c4cccc5c4cnn5CCCCN4CC[C@@H](O)C4)c3N)c(Cl)cc2CN[C@@H](CO)C(=O)O)c1 [Compound 29],< 5.96,
CN(C)c1c(COc2cc(OCc3cncc(C#N)c3)c(CN[C@@H](CO)C(=O)O)cc2Cl)cccc1-c1cccc2c1cnn2CCCCN1CC[C@@H](O)C1 [Compound 31],< 5.00,
N#Cc1cncc(COc2cc(OCc3cccc(-c4cccc5c4cnn5CCCN4CC[C@@H](O)C4)c3Br)c(Cl)cc2CN[C@@H](CO)C(=O)O)c1 [Compound 32],,6.14
CC(CO)(CO)NCc1cc(Cl)c(OCc2cccc(-c3cccc4c3cnn4CCCN3CC[C@@H](O)C3)c2Br)cc1OCc1cncc(C#N)c1 [Compound 33],,< 6.43
N#CCOc1cc(OCc2cccc(-c3cccc4c3cnn4CCCCN3CC[C@@H](O)C3)c2Br)c(Cl)cc1CN[C@@H](CO)C(=O)O [Compound 34],5.24,
N#CCCCOc1cc(OCc2cccc(-c3cccc4c3cnn4CCCCN3CC[C@@H](O)C3)c2Br)c(Cl)cc1CN[C@@H](CO)C(=O)O [Compound 35],5.81,
N#CCCCCOc1cc(OCc2cccc(-c3cccc4c3cnn4CCCCN3CC[C@@H](O)C3)c2Br)c(Cl)cc1CN[C@@H](CO)C(=O)O [Compound 36],5.63,
N#CCCCCCOc1cc(OCc2cccc(-c3cccc4c3cnn4CCCCN3CC[C@@H](O)C3)c2Br)c(Cl)cc1CN[C@@H](CO)C(=O)O [Compound 37],5.72,
NC(=O)COc1cc(OCc2cccc(-c3cccc4c3cnn4CCCCN3CC[C@@H](O)C3)c2Br)c(Cl)cc1CN[C@@H](CO)C(=O)O [Compound 38],5.12,
Cc1cncc(COc2cc(OCc3cccc(-c4cccc5c4cnn5CCCCN4CC[C@@H](O)C4)c3Br)c(Cl)cc2CN[C@@H](CO)C(=O)O)c1 [Compound 39],< 5.00,
COc1cncc(COc2cc(OCc3cccc(-c4cccc5c4cnn5CCCCN4CC[C@@H](O)C4)c3Br)c(Cl)cc2CN[C@@H](CO)C(=O)O)c1 [Compound 40],< 5.00,
O=C(O)[C@H](CO)NCc1cc(Cl)c(OCc2cccc(-c3cccc4c3cnn4CCCCN3CC[C@@H](O)C3)c2Br)cc1OCc1cncc(Cl)c1 [Compound 41],6.22,
Cn1cc(COc2cc(OCc3cccc(-c4cccc5c4cnn5CCCCN4CC[C@@H](O)C4)c3Br)c(Cl)cc2CN[C@@H](CO)C(=O)O)cn1 [Compound 42],< 5.00,
N#Cc1cc(C#N)cc(COc2cc(OCc3cccc(-c4cccc5c4cnn5CCCCN4CC[C@@H](O)C4)c3Br)c(Cl)cc2CN[C@@H](CO)C(=O)O)c1 [Compound 44],6.82,
O=C(O)[C@H](CO)NCc1cc(Cl)c(OCc2cccc(-c3cccc4c3cnn4CCCCN3CC[C@@H](O)C3)c2Br)cc1OCC1CCOCC1 [Compound 45],5.57,
CN1CCC(COc2cc(OCc3cccc(-c4cccc5c4cnn5CCCCN4CC[C@@H](O)C4)c3Br)c(Cl)cc2CN[C@@H](CO)C(=O)O)CC1 [Compound 46],6.07,
O=C1CC[C@@H](COc2cc(OCc3cccc(-c4cccc5c4cnn5CCCCN4CC[C@@H](O)C4)c3Br)c(Cl)cc2CN[C@@H](CO)C(=O)O)N1 [Compound 47],6.58,
